Test results: patent publication US20250018030A1, “PHARMACEUTICAL COMPOSITION FOR PROMOTING CANCER IMMUNOTHERAPY AND METHOD FOR PROMOTING CANCER IMMUNOTHERAPY” (China Medical University, priority 2023, published 2025)

Legend:
B16F10 cells = test: Melanoma model, B16F10 subcutaneous implantation; assay type: in vivo; conditions: IL-17−/− mice
Experimental: (§1) Monoclonal antibodies were purchased from BD Biosciences or eBioscience. For intracellular cytokine staining (ICS), cells were first restimulated by PMA/ionomycin for 5 hours in the presence of GolgiStop (BD Biosciences), followed by surface epitope staining markers before being fixed/permeabilized (BD Cytofix/Cytoperm™) and stained with antibodies targeting intracellular antigens. Cells were finally fixed with 1.5% formaldehyde for 10 minutes at room temperature and analyzed on a FACSVerse flow cytometer (BD Bioscience). Data were analyzed using FlowJo software (Tree Star Inc.).
(§2) For Pan18-subcutaneous implantation, 5×10^5 Pan18 cells were administered to wild-type (WT) or IL-17^−/− mice. Genipin (5 mg/kg, 10 mg/kg, or 30 mg/kg, i.p., every two days) was administered to Pan18-bearing mice for 3 weeks. For 3036-subcutanous implantation, 2×10^5 3036 cells were administered to WT mice. Genipin (10 mg/kg, i.p., every two days) and recombinant anti-IL-17 receptor antibody (αIL-17RA) (1 mg/kg, i.v., once a week) were administered to 3036-bearing mice for 3 weeks. Tumor volumes were evaluated every 2 days. For the orthotopic tumor modelling, mice pancreases were injected with 2×10^5 Pan18 cells and monitored for tumor growth weekly using IVIS kinetics imaging system (Caliper Life-Sciences). Genipin (10 mg/kg, i.p., every two days) or αIL-17RA (1 mg/kg, i.v., once a week) was administered 1 week after tumor implantation. Mice were sacrificed 35 days after tumor induction and tumors weighed. For spontaneous pancreatic cancer model, Cre-dependent conditional knockin mutations of KrasG12D Kras^+/LSLG12D mice (B6; 129-Kras2) were obtained from the Mouse Models of Human Cancer Consortium. Elas-CreERT; Kras^+/LSLG12D mice was generated by breeding Kras^+/LSLG12D mice with Elas-CreER mice obtained from the Level Transgenic Center. To induce the expression of Kras^+/LSLG12D in acinar cells, 5-week-old Elas-CreERT; Kras^+/LSLG12D male mice were injected with 100 μl of tamoxifen (20 mg/ml, i.p., three times per week) for 1 week. To induce chronic inflammation and tumors, 100 μl of cerulein (50 μg/ml, i.p., six times per week) (BACHEM) was given to the mice for 3 weeks. Then, the mice were injected with genipin (10 mg/kg, i.p., every two days) and αIL-17RA (1 mg/kg, i.v., once a week) until the end of the experiment, and overall survival was monitored. For genetically CD4/CD8-specific UCP2 deletion tumor modelling, we generated CD4Cre×UCP2^f/f mice by crossing loxP-UCP2-loxP mice with CD4Cre mice. CD4Cre×UCP2^f/f, WT, and loxP control mice underwent subcutaneous implantation of 2×10^5 Pan18 cells, followed by treatment with αIL-17RA (1 mg/kg, i.v., once a week) for 3 weeks. For melanoma modelling, IL-17/-and WT mice underwent subcutaneous implantation of 5×10^5 B16F10 cells, followed by treatment with genipin (10 mg/kg, i.p., every two days) for 3 weeks. For CD8 depletion tumor modelling, IL-17^−/− mice underwent subcutaneous implantation of 2×10^5 Pan18 cells, followed by treatment with genipin (10 mg/kg, i.p., every two days) and CD8 neutralizing antibody (5 mg/kg, i.v., once a week) for 3 weeks. Tumor volumes were evaluated every 3 days.

Tc1 cells [1] = test: Immunoblotting of PI3K/AKT/mTOR and STAT4 in Tc1 cells; assay type: cell-based, Mouse
Experimental: The protein concentrations of the total cell lysate or the extracted histones were determined by a Bradford assay (Bio-Rad Laboratories). Immunoblot analysis was performed with 10% sodium dodecyl sulfate-polyacrylamide gel electrophoresis, followed by overnight incubation with primary antibodies (1:1000 dilution) and incubation with horseradish peroxidase-conjugated secondary antibodies (1:5000 dilution; GeneTex). The polyvinylidene difluoride membranes were probed with antibodies against UCP2, pPI3K/PI3K, pAKT/AKT, pmTOR/mTOR, pSTAT1/STAT1, pSTAT4/STAT4, and H3K9Ac, which were purchased from Cell Signaling Technology or Genetex. Actin or Lamin B1 (Merck-Millipore) was used as the loading control. Signals were detected using an ECL solution (GE) and optical density quantified using ImageJ software.

Tc1 cells [2] = test: Metabolic assays (Seahorse ECAR/OCR, mitochondrial pyruvate and acetyl CoA) in Tc1 cells; assay type: cell-based, Mouse
Experimental: The real-time extracellular acidification rate (ECAR) and oxygen consumption rate (OCR) were measured using a Seahorse XF24 analyzer (Seahorse Bioscience), within XF Glycolysis Stress and XF Cell Mito Stress Test kits used to assess glycolysis and oxidative phosphorylation. 5×10^5 cells exposed to the indicated treatments were plated in an XF-24 microplate coated with Cell-Tak (Corning) one day before the assay. ECAR and OCR were measured after metabolic manipulations by the addition of oligomycin, carbonyl cyanide-p-trifluoromethoxy-phenylhydrazone (FCCP), 2-deoxyglucose (2-DG) and rotenone/anti-mycin A (R/A). Calculations were conducted with Agilent Seahorse Wave Software for Agilent Seahorse XF analyzers (Seahorse Bioscience). For isolation of mitochondria, Tc1 cells were frozen and thawed to weaken the membranes and resuspended in Reagent A of a mitochondria isolation kit (ab110170, Abcam), before being homogenized and centrifuged at 1,000×g for 10 minutes at 4° C. Supernatant was saved (SN #1) and the pellet resuspended in Reagent B. After homogenization and centrifugation, supernatant was saved (SN #2). SN #1 and SN #2 were mixed thoroughly and centrifuged at 12,000×g for 15 minutes at 4° C. The pellet was collected in Reagent C supplemented with protease inhibitors and was used for the pyruvate and acetyl COA assays. Briefly, the mitochondrial pyruvate and acetyl CoA levels in the Tc1 cells were assessed using a commercial Pyruvate Assay Kit (ab65342, Abcam) and PicoProbe Acetyl COA Assay Kit (ab87546, Abcam) according to the manufacturer's instructions.

Pan18 cells = test: Orthotopic PDAC tumor model (Pan18 cells injected in pancreas); assay type: in vivo, mice; conditions: for Survival, bioluminescent tumor growth and tumor weight: FIG. 5H-5J
Experimental: as §1, §2

[3] = genipin-treated Tc1 cells, data not shown

`COC(=O)C1=CO[C@@H](O)[C@@H]2C(CO)=CC[C@H]12` [genipin] was tested, and the “Tumor growth (tumor volume)” value (B16F10 cells; genipin 10 mg/kg i.p. every two days, 3 weeks, FIG. 7B) was “additional effect on the inhibition of tumor growth”, the “Population of Tc1 cells” value (B16F10 cells; genipin 10 mg/kg, FIG. 7C) was “increased the expansion of Tc1 cells” and the “Population of Th1 cells” value (B16F10 cells; genipin 10 mg/kg, FIG. 7D) was “not significantly impacting”. For the same compound, the “Population of Treg cells” value (B16F10 cells; genipin 10 mg/kg, FIG. 7E) was “not significantly impacting”, the “Prevalence of MDSC” value (B16F10 cells; genipin 10 mg/kg, FIG. 7F) was “decreasing prevalence of MDSC” and the “STAT4 levels / activation” value (Tc1 cells [1]; genipin 12 hours, FIG. 2Q) was “STAT4 activation”. The “Expression of mTOR and its upstream kinases PI3K and AKT” value (Tc1 cells [1]; genipin-treated Tc1 cells) was “increased”, the “Glycolysis readout, ECAR” value (Tc1 cells [2]; genipin 12.5 μM, Seahorse XF24, FIG. 2E) was “no functional impact” and the “Oxidative phosphorylation, OCR” value (Tc1 cells [2]; genipin 12.5 μM, Seahorse XF24, FIG. 2F) was “promoted oxidative phosphorylation”. For the same compound, the “Acetyl CoA level in the mitochondria” value (Tc1 cells [2]; genipin-treated Tc1 cells, FIG. 2G) was “increased the level of acetyl CoA”, the Mitochondrial pyruvate (Tc1 cells [2]; genipin-treated Tc1 cells, FIG. 2H) was “parallel increase” and the “Acetyl CoA level in the cytosol” value (Tc1 cells [2]; [3]) was “increased the level of acetyl CoA”. The “Cytosolic fraction of pyruvate” value (Tc1 cells [2]; [3]) was “decreased”, the “Survival, bioluminescent tumor growth and tumor weight” value (Pan18 cells; IL-17−/− mice, genipin 10 mg/kg i.p. every two days, 3 weeks) was “significant benefit” and the “Tumor-infiltrating population of Tc1 cells” value (Pan18 cells; IL-17−/− mice, genipin 10 mg/kg, FIG. 5K) was “increased”. For the same compound, the “Tumor-infiltrating population of Th1 cells” value (Pan18 cells; IL-17−/− mice, genipin 10 mg/kg, FIG. 5L) was “increased”, the “Tumor-infiltrating population of MDSC” value (Pan18 cells; IL-17−/− mice, genipin 10 mg/kg, FIG. 5N) was “increased” and the “Survival, bioluminescent tumor growth and tumor weight” value (Pan18 cells; WT mice, genipin 10 mg/kg alone (singular UCP2 targeting)) was “no impact”.
